pIC50: −log10 of the molar value.
Tests used:
[1] = light stability in normal daylight, visual assessment; assay type: physicochemical; conditions: for time to complete darkening: on both groundworks (paper, tissue paper)
Caco-2 cells [2] = experiment: MTT assay (mitochondrial activity), 72 h exposure; assay type: cell-based, human; conditions: Caco-2, MTT
Caco-2 cells [3] = experiment: NRU assay (lysosomal activity), 72 h exposure; assay type: cell-based, human; conditions: Caco-2, NRU
Caco-2 cells [4] = experiment: TPC assay (total protein content), 72 h exposure; assay type: cell-based, human; conditions: Caco-2, TPC
Caco-2 cells [5] = experiment: LDH leakage assay (membrane integrity), 72 h exposure; assay type: cell-based, human; conditions: Caco-2, LDH
Balb/c 3T3 cells [6] = experiment: MTT assay (mitochondrial activity), 72 h exposure; assay type: cell-based, murine
Experimental: (§1) The human hepatoma (HepG2) and colorectal adenocarcinoma (Caco-2) cells were purchased from the American Type Culture Collection: ATCC HB-8065 and ATCC HTB-37, respectively. These cells were cultured in Minimum Essential Medium Eagle (MEME) (ATCC). The murine fibroblasts cell line (Balb/c 3T3 clone A31) (gift from the Department of Swine Diseases of the National Veterinary Research Institute in Pulawy) was cultured in Dulbecco’s Modified Eagle Medium (DMEM) (ATCC). The media were supplemented with 10% BCS (Balb/c 3T3), 10% FBS (HepG2), 20% FBS (Caco-2), 1% L-glutamine, 1% antibiotic solution. The cells were maintained in 75 cm^2 cell culture flasks (NUNC) in a humidified incubator at 37 °C in an atmosphere of 5% CO2. The medium was refreshed every two or three days, and the cells were trypsinized by 0.25% trypsin–0.02% EDTA after reaching 70–80% confluence. Single cell suspensions were prepared and adjusted to a density of 2 × 10^5 cell/mL^−1 (HepG2), 1 × 10^5 cell/mL^−1 (Caco-2) and 5 × 10^4 cell/mL^−1 (Balb/c 3T3). The cell suspension was transferred to 96-well plates (100 µL/well) and incubated for 24 h before the exposure to the studied compounds. Stock solutions of ligands and metal complexes were prepared in sterile water and diluted with culture medium to obtain a concentration range from 0.1 to 10 µM. The final concentration of sterile water was 0.1% in the medium. […] As a negative control, cultured cells were grown in the absence of studied compounds. Each concentration was tested in six replicates in three independent experiments. Cytotoxicity was assessed after 72 h of exposure of the cells to compounds. The medium was not changed during the incubation time.
The metabolic activity of living cells was assessed by the measurement of the activity of dehydrogenases. […] The plate was shaken for 15 min at room temperature and transferred to a microplate reader Synergy HTX multi-mode reader (BioTek® Instruments Inc., Winooski, VT, USA) to measure the absorbance at 570 nm, using a blank as a reference. Cytotoxicity was expressed as a percentage of the negative control. […]

Balb/c 3T3 cells [7] = experiment: TPC assay (total protein content), 72 h exposure; assay type: cell-based, murine
Experimental: as §1
This assay is based upon staining the total cellular protein (proliferation). […] The absorbance was measured at 595 nm in a microplate reader Synergy HTX multi-mode reader (BioTek® Instruments Inc., Winooski, VT, USA) using a blank as a reference. Cytotoxicity was expressed as a percentage of the negative control. […]

Balb/c 3T3 cells [8] = experiment: LDH leakage assay (membrane integrity), 72 h exposure; assay type: cell-based, murine
Experimental: as §1
The integrity of the plasma membrane was assessed through the test of lactate dehydrogenase (LDH) release, which was monitored using the commercially available Cytotoxicity Detection Kit (LDH) (Roche Diagnostics, Warsaw, Poland). […] The absorbance was measured at 492 nm in a microplate reader Synergy HTX multi-mode reader (BioTek® Instruments Inc., Winooski, VT, USA) using a blank as a reference. […]

[9] = system: reference aerobic and anaerobic microorganisms (ATCC); experiment: micro-dilution broth method, whole panel of reference strains; assay type: cell-based; conditions: against the majority of tested bacterial strains
solubility in water = assay type: physicochemical; conditions: qualitative statement
S. aureus biofilm = experiment: qualitative antibiofilm activity, confocal laser scanning microscope (CLSM); conditions: 500 mg/L, 24 h exposure
[10] = 1.25 µmol applied on tissue paper

## O=S(=O)([O-])[O-].[Ag+].[Ag+] [Ag2SO4, silver sulfate]
[1]; 1.25 µmol applied on paper
  time of exposure after which darkening began: 10 min
[1]; [10]
  time of exposure after which darkening began: 30 min
[1]
  time to complete darkening: 24 h

## O=[N+]([O-])[O-].[Ag+] [AgNO3, Silver nitrate]
[1]; 1.25 µmol applied on paper
  time of exposure after which darkening began: 10 min
[1]; [10]
  time of exposure after which darkening began: 30 min
[1]
  time to complete darkening: 24 h

## Cc1ncc([N+](=O)[O-])n1CCO [MTZ, 2-Methyl-5-nitroimidazole-1-ethanol]
Caco-2 cells [2]; Homo sapiens, mean ± SD, n = 3
  pIC50: < 5.00
Caco-2 cells [3]; Homo sapiens, mean ± SD, n = 3
  pIC50: < 5.00
Caco-2 cells [4]; Homo sapiens, mean ± SD, n = 3
  pIC50: < 5.00
Caco-2 cells [5]; Homo sapiens, mean ± SD, n = 3
  pIC50: < 5.00
Balb/c 3T3 cells [6]; Mus musculus, BALB/c3T3, Balb/c 3T3, MTT, mean ± SD, n = 3
  pIC50: < 5.00
Balb/c 3T3 cells [7]; Mus musculus, BALB/c3T3, Balb/c 3T3, TPC, mean ± SD, n = 3
  pIC50: < 5.00
Balb/c 3T3 cells [8]; Mus musculus, BALB/c3T3, Balb/c 3T3, LDH, mean ± SD, n = 3
  pIC50: < 5.00

## Cc1ncc([N+](=O)[O-])n1CCO.Cc1ncc([N+](=O)[O-])n1CCO.Cc1ncc([N+](=O)[O-])n1CCO.Cc1ncc([N+](=O)[O-])n1CCO.O=S(=O)([O-])[O-].[Ag+].[Ag+] [[Ag(MTZ)2]2SO4]
Caco-2 cells [2]; Figure 6
  lowest concentration with inhibition of mitochondrial activity: 1.0 µM
Caco-2 cells [3]; Figure 6
  lowest concentration with inhibition of lysosomal activity: 1.0 µM
Caco-2 cells [4]; Figure 6
  lowest concentration with decreased total protein content: 5.0 µM
Caco-2 cells [5]; Figure 6
  lowest concentration with significant (p ≤ 0.05) disintegration of cellular membranes: 0.5 µM
Balb/c 3T3 cells [6]; Balb/c 3T3, MTT, Figure 6
  lowest concentration with significant (p ≤ 0.05) effect: 5.0 µM
Balb/c 3T3 cells [7]; Balb/c 3T3, TPC, Figure 6
  lowest concentration with significant (p ≤ 0.05) effect: 5.0 µM
Balb/c 3T3 cells [8]; Balb/c 3T3, LDH, Figure 6
  lowest concentration with significant (p ≤ 0.05) effect: 5.0 µM
[9]
  minimal inhibition concentration (MIC), range: 0.24 to 250 µg/mL
Solubility in water
  solubility in water: more soluble in water in comparison to Ag2SO4
S. aureus biofilm
  effect on biofilm (CLSM, qualitative): significantly reduced biofilm density
